{"source": "paper PMC9447431", "about": "(Journal of chemical information and modeling, 2021)", "type_in_all_cases": "cell-based", "key": {"OPRM [1]": {"biological_target": "T1, OPRM (Homo sapiens, UniProt P35372)", "T1 sequence (P35372 whole entry)": "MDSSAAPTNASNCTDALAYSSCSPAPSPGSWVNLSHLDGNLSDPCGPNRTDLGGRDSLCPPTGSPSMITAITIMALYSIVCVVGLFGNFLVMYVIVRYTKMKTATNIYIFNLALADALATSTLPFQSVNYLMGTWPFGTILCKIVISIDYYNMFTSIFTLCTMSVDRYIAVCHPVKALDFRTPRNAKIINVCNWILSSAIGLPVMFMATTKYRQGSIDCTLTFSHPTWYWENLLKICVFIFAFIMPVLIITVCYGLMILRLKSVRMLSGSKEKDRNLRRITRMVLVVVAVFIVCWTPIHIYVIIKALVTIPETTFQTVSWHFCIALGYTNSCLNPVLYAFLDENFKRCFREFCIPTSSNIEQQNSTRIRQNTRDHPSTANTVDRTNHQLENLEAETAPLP", "assay": "cell-based"}, "OPRD [2]": {"biological_target": "T2, OPRD (Homo sapiens, UniProt P41143)", "T2 sequence (P41143 whole entry)": "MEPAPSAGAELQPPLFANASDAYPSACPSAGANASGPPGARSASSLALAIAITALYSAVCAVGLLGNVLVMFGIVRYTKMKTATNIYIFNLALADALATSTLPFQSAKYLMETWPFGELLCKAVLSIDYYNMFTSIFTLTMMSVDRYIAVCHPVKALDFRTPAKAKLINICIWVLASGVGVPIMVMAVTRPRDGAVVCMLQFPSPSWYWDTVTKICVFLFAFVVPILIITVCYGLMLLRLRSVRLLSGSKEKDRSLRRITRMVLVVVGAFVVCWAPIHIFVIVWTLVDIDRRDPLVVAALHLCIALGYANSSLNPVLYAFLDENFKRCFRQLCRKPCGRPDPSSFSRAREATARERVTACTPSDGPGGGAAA", "assay": "qHTS cAMP assay, agonist mode, HDOR cells", "conditions": "CHO-K1 cells expressing human δ-OPR (HDOR)"}, "OPRK [3]": {"biological_target": "T3, OPRK (Homo sapiens, UniProt P41145)", "T3 sequence (P41145 whole entry)": "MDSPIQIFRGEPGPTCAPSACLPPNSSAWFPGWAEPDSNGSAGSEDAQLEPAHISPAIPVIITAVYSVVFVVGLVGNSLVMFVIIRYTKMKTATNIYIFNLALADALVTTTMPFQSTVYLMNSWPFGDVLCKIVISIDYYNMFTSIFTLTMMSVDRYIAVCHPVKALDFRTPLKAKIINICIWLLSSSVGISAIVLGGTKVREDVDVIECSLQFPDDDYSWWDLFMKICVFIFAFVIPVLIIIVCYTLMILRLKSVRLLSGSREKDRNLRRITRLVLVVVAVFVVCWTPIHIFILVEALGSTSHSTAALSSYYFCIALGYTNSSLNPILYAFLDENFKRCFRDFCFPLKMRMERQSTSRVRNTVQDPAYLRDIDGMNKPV", "assay": "qHTS cAMP assay, agonist mode, HKOR cells"}, "OPRK [4]": {"biological_target": "T3, OPRK", "assay": "cell-based"}, "OPRM [5]": {"biological_target": "T1, OPRM", "assay": "cell-based", "remark": "listed apart in the source"}, "OPRD [6]": {"biological_target": "T2, OPRD", "assay": "qHTS cAMP assay, antagonist mode, HDOR cells"}, "[7]": {"conditions": "OPRK-agonist, CHO-K1 cells expressing human κ-OPR (HKOR), cAMP"}}, "note": "Like-named read-outs stand apart in the source and are kept apart here.", "data": [{"smiles": "O=C(NCCCc1nc2ccccc2n1Cc1c(F)cccc1Cl)C1CCCCC1", "note": "[NCGC00114741-01]", "values": [{"measurement": "AC50", "setting": "OPRM [1]", "value": 520, "unit": "nM"}]}, {"smiles": "O=C(Nc1ccccc1C(F)(F)F)N1CCC(CN2CCc3ccccc3C2)CC1", "note": "[NCGC00123899-01]", "values": [{"measurement": "AC50", "setting": "OPRM [1]", "value": 920, "unit": "nM"}]}, {"smiles": "Cc1cccc(OCC(=O)NCC2(N3CCN(C)CC3)CCCCC2)c1C", "note": "[NCGC00118605-01]", "values": [{"measurement": "AC50", "setting": "OPRM [1]", "value": 1830, "unit": "nM"}]}, {"smiles": "CCn1c(=N)n(CCOc2ccc(Br)cc2)c2ccccc21", "note": "[NCGC00141762-01]", "values": [{"measurement": "AC50", "setting": "OPRM [1]", "value": 2060, "unit": "nM"}]}, {"smiles": "CCCC1=Nc2cc(C(=O)N3CCC(C)CC3)ccc2Sc2ccc(C)cc21", "note": "[NCGC00107633-01]", "values": [{"measurement": "AC50", "setting": "OPRM [1]", "value": 920, "unit": "nM"}]}, {"smiles": "COc1ccccc1N1CCN(CC[C@@](C)(C(=O)C2CCCCC2)c2ccccc2)CC1", "note": "[NCGC00386484-01, LY 426965]", "values": [{"measurement": "AC50", "setting": "OPRM [1]", "value": 180, "unit": "nM"}]}, {"smiles": "CCOC(=O)c1c(NC(=O)c2ccc(S(=O)(=O)N(C)C)cc2)sc2c1CCN(C)C2", "note": "[NCGC00136158-01]", "values": [{"measurement": "AC50", "setting": "OPRD [2]", "value": 2310, "unit": "nM"}]}, {"smiles": "Cc1cc(Cl)ccc1OCC(=O)N(Cc1ccc(N(C)C)cc1)CC1CCCO1", "note": "(centres unmarked) [NCGC00117293-01]", "values": [{"measurement": "AC50", "setting": "OPRK [3]; [7]", "value": 2500, "unit": "nM"}]}, {"smiles": "CO[C@H]1C[C@@H]2CC[C@@H](C)[C@@](O)(O2)C(=O)C(=O)N2CCCC[C@H]2C(=O)O[C@H]([C@H](C)C[C@@H]2CC[C@@H](OP(C)(C)=O)[C@H](OC)C2)CC(=O)[C@H](C)/C=C(\\C)[C@@H](O)[C@@H](OC)C(=O)[C@H](C)C[C@H](C)/C=C/C=C/C=C/1C", "note": "[NCGC00346481-02, Ridaforolimus]", "values": [{"measurement": "AC50", "setting": "OPRK [3]", "value": 130, "unit": "nM"}]}, {"smiles": "O=C(O)c1ccc(O)c2ncc(N3CCCN(CCc4cccc5ccccc45)CC3)cc12", "note": "[NCGC00247751-02]", "values": [{"measurement": "AC50", "setting": "OPRM [1]", "value": 650, "unit": "nM"}]}, {"smiles": "O=C(CC(c1ccccc1)c1ccccc1)N1CCN(C(c2ccccc2)c2ccccc2)CC1", "note": "[NCGC00378879-01, NP-118809]", "values": [{"measurement": "AC50", "setting": "OPRM [1]", "value": 1830, "unit": "nM"}]}, {"smiles": "COc1ccc(NC(=O)Cn2c(=O)n(-c3ccc(CC(=O)NCC4CCCO4)cc3)c(=O)c3ccccc32)c(OC)c1", "note": "(centres unmarked) [NCGC00106344-01]", "values": [{"measurement": "AC50", "setting": "OPRK [4]", "value": 2060, "unit": "nM"}, {"measurement": "IC50", "setting": "OPRK [4]", "value": 2060, "unit": "nM"}]}, {"smiles": "Cc1cccc(-c2[nH]c(Cc3cccc(C(N)=O)c3)nc2-c2ccc3nccnc3c2)n1", "note": "[NCGC00386726-01, IN-1130]", "values": [{"measurement": "AC50", "setting": "OPRK [4]", "value": 2060, "unit": "nM"}, {"measurement": "IC50", "setting": "OPRK [4]", "value": 2060, "unit": "nM"}]}, {"smiles": "CN1CCN(C2(CNC(=O)c3ccc(C(C)(C)C)cc3)CCCCC2)CC1", "note": "[NCGC00118549-01]", "values": [{"measurement": "AC50", "setting": "OPRM [1]", "value": 460, "unit": "nM"}]}, {"smiles": "Nc1ncnc2c1nc(Cl)n2[C@@H]1O[C@@H]2COP(=O)(O)O[C@H]2[C@H]1O", "note": "[NCGC00485288-01, Tocladesine]", "values": [{"measurement": "AC50", "setting": "OPRK [4]", "value": 920, "unit": "nM"}, {"measurement": "AC50", "setting": "OPRM [5]", "value": 1030, "unit": "nM"}, {"measurement": "AC50", "setting": "OPRD [6]", "value": 460, "unit": "nM"}]}, {"smiles": "CCC(=O)NCC(c1ccc2c(c1)OCO2)N1CCN(c2ccccc2)CC1", "note": "(centres unmarked) [NCGC00135974-01]", "values": [{"measurement": "AC50", "setting": "OPRK [3]; [7]", "value": 1160, "unit": "nM"}]}, {"smiles": "Cc1cn(CCN2CCN(c3ccccc3-c3cc(C#N)cc(C(=O)NCCCN4CCCC4)c3)CC2)c2ccccc12", "note": "[NCGC00356417-05, LLY-507]", "values": [{"measurement": "AC50", "setting": "OPRM [1]", "value": 130, "unit": "nM"}]}, {"smiles": "O=C(NCCN1CCC(n2c(=O)[nH]c3ccccc32)CC1)c1cc2cc(F)ccc2[nH]1", "note": "[NCGC00370807-05, FIPI]", "values": [{"measurement": "AC50", "setting": "OPRM [1]", "value": 580, "unit": "nM"}]}, {"smiles": "CCCN(CCC)S(=O)(=O)c1ccc(C(=O)Nc2sc3c(c2C(=O)OC)CCN(CC)C3)cc1", "note": "[NCGC00139128-01]", "values": [{"measurement": "AC50", "setting": "OPRD [2]", "value": 2060, "unit": "nM"}]}, {"smiles": "N#CC(CCCN1CCC(O)(c2ccc(Cl)cc2)CC1)(c1ccccc1)c1ccccc1", "note": "[NCGC00378719-01, VUF-2274]", "values": [{"measurement": "AC50", "setting": "OPRM [1]", "value": 410, "unit": "nM"}]}, {"smiles": "O=C(NCCCc1nc2ccccc2n1Cc1ccccc1Cl)C1CCCCC1", "note": "[NCGC00114743-01]", "values": [{"measurement": "AC50", "setting": "OPRM [1]", "value": 1640, "unit": "nM"}]}, {"smiles": "Nc1ncnc2c1ncn2[C@@H]1O[C@@H]2COP(O)(=S)O[C@H]2[C@H]1O", "note": "(some centres unmarked) [NCGC00485585-01, Adenosine 3’,5’-cyclothiophosphate]", "values": [{"measurement": "AC50", "setting": "OPRK [4]", "value": 70, "unit": "nM"}, {"measurement": "IC50", "setting": "OPRK [4]", "value": "40 to 70", "unit": "nM"}, {"measurement": "AC50", "setting": "OPRM [5]", "value": 60, "unit": "nM"}, {"measurement": "IC50", "setting": "OPRM [5]", "value": "40 to 70", "unit": "nM"}, {"measurement": "IC50", "setting": "OPRD [6]; OPRD, antagonist mode, range given for all three receptors", "value": "40 to 70", "unit": "nM"}, {"measurement": "AC50", "setting": "OPRD [6]; OPRD-antagonist, HDOR cells, with 2nM dynorphin B", "value": 40, "unit": "nM"}]}, {"smiles": "COc1ccccc1N1CCN(Cc2cc(COC(C)C)c3cccnc3c2O)CC1", "note": "[NCGC00114968-02]", "values": [{"measurement": "AC50", "setting": "OPRM [5]", "value": 650, "unit": "nM"}]}]}
